Data: patent US11203600B2 (Denali Therapeutics Inc., priority 2017, dated 2021)
One block for each compound: values may come before it.

Biological target: GST-hRIPK1 (8-327) (Homo sapiens (Human), UniProt Q13546)
Test: Fluorescent Polarization Binding (FP Binding) assay, RIPK1
Details: mean of at least two independent experiments
Protocol: Fluorescent Polarization Binding (FP Binding) assay (Berger S. B. et al. (2015) Cell Death Discovery, 1: 15009; Maki J. L. et al. (2012) Anal Biochem., 427(2): 164-174) was performed in polystyrene low volume 384-well black plate, at RT in a final volume of 10.1 μl/well using 10 nM of GST-hRIPK1 (8-327) enzyme and 5 nM of fluorescent-labeled ligand (14-(2-{[3-({2-{[4-(cyanomethyl)phenyl]amino]-6-[(5-cyclopropyl-1H-pyrazol-3-yl)amino]-4-pyrimidinyl}amino) propyl}amino}-2-oxoethyl)-16,16,18,18-tetramethyl-6,7,7a,8a,9,10,16,18-octahydrobenzo [2″,3″]indolizino[8″,7″:5′,6′]pyrano [3′,2′:3,4]pyrido[1,2-a]indo1-5-ium-2-sulfonate.
Test compounds were serially diluted in DMSO at 100 fold final concentrations in the assay (1% DMSO final). In each well of a 384-well Plate were dispensed 0.1 μL of compound solution (or DMSO for controls) followed by 5 μL of GST-hRIPK1 (8-327) at twice the final concentrations in assay buffer (50 mM HEPES pH 7.5, 10 mM NaCl, 50 mM MgCl2, 0.02% CHAPS, 0.5 mM DTT and 0.01% Pluronic F127). For negative control the enzyme addition was replaced by assay buffer only.
After addition of 5 μL of fluorescentlabeled ligand at twice the final concentrations in assay buffer, the plate was incubated at RT for […]. At the end, the binding was measured as FP value with the Envision (PerkinElmer) plate reader using filter for an excitation λ=531 nm FP and an emission λ=595 nm FP (S & P-pol). GST-hRIPK1 (8-327) enzyme was produced via Baculovirus expression.
Test compound inhibition was expressed as percent inhibition of internal assay controls. For concentration response curves, normalized data is fit and IC50 determined using XL-fit (IDBS) for Excel. The IC50 values were averaged to determine a mean value, for a minimum of two independent experiments. Results are shown in Table 2 (RIPK1 IC50) values: +++=0.1 nM<IC50<100 nM; ++=100 nM<IC50<1 μM; +=1 μM<IC50).

Chain of GST-hRIPK1 (8-327) (Q13546 8-327): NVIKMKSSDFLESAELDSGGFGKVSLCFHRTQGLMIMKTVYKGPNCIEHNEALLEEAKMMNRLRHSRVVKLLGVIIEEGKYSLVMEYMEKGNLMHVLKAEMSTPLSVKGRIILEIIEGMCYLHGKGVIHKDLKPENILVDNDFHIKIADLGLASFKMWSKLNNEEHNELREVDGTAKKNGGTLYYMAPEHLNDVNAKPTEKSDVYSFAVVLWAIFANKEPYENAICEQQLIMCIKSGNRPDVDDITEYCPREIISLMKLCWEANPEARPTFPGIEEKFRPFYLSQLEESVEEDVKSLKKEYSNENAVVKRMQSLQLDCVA

SMILES: N#Cc1cncc2c1OCCN(C(=O)[C@]13CCN(c4ncc(F)cn4)C[C@H]1C3)C2 (relative stereo) [Example 89, 4-(cis-3-(5-fluoropyrimidin-2-yl)-3-azabicyclo[4.1.0]heptane-6-carbonyl)-3,5-dihydro-2H-pyrido[3,4-f][1,4]oxazepine-9-carbonitrile]
- IC50 (10 nM GST-hRIPK1 (8-327), 5 nM fluorescent-labeled ligand, RT, 30 min): 0.1 to 100 nM

SMILES: CC(C(=O)N1CCOc2c(C#N)cncc2C1)(C(F)F)C1CC1 (single isomer, unassigned) [Example 258, 4-(2-Cyclopropyl-3,3-difluoro-2-methyl-propanoyl)-3,5-dihydro-2H-pyrido[3,4-f][1,4]oxazepine-9-carbonitrile]
- IC50 (GST-hRIPK1 (8-327)): 0.1 to 100 nM

SMILES: CC(C(=O)N1CCOc2c(C#N)cncc2C1)(C(F)F)C1CC1 (single isomer, unassigned) [Example 259, 4-(2-Cyclopropyl-3,3-difluoro-2-methyl-propanoyl)-3,5-dihydro-2H-pyrido[3,4-f][1,4]oxazepine-9-carbonitrile]
- IC50 (GST-hRIPK1 (8-327)): 100 to 1000 nM

SMILES: CCC(C)(C(=O)N1CCOc2c(C#N)cncc2C1)C(F)F (single isomer, unassigned) [Example 260, 4-(2-(Difluoromethyl)-2-methylbutanoyl)-2,3,4,5-tetrahydropyrido[3,4-f][1,4]oxazepine-9-carbonitrile]
- IC50 (GST-hRIPK1 (8-327)): 0.1 to 100 nM

SMILES: CCC(C)(C(=O)N1CCOc2c(C#N)cncc2C1)C(F)F (single isomer, unassigned) [Example 261, 4-(2-(Difluoromethyl)-2-methylbutanoyl)-2,3,4,5-tetrahydropyrido[3,4-f][1,4]oxazepine-9-carbonitrile]
- IC50 (GST-hRIPK1 (8-327)): 0.1 to 100 nM

SMILES: CCC(C)(CC#N)C(=O)N1CCOc2c(C#N)cncc2C1 (single isomer, unassigned) [Example 264, 4-[2-(Cyanomethyl)-2-methyl-butanoyl]-3,5-dihydro-2H-pyrido[3,4-f][1,4]oxazepine-9-carbonitrile]
- IC50 (GST-hRIPK1 (8-327)): 0.1 to 100 nM

SMILES: CCC(C)(CC#N)C(=O)N1CCOc2c(C#N)cncc2C1 (single isomer, unassigned) [Example 265, 4-[2-(Cyanomethyl)-2-methyl-butanoyl]-3,5-dihydro-2H-pyrido[3,4-f][1,4]oxazepine-9-carbonitrile]
- IC50 (GST-hRIPK1 (8-327)): 0.1 to 100 nM

SMILES: CC(F)C(C)(C)C(=O)N1CCOc2c(C#N)cncc2C1 (single isomer, unassigned) [Example 270, 4-(3-fluoro-2,2-dimethyl-butanoyl)-3,5-dihydro-2H-pyrido[3,4-f][1,4]oxazepine-9-carbonitrile]
- IC50 (GST-hRIPK1 (8-327)): 0.1 to 100 nM

SMILES: CC(F)C(C)(C)C(=O)N1CCOc2c(C#N)cncc2C1 (single isomer, unassigned) [Example 272, 4-(3-Fluoro-2,2-dimethyl-butanoyl)-3,5-dihydro-2H-pyrido[3,4-f][1,4]oxazepine-9-carbonitrile]
- IC50 (GST-hRIPK1 (8-327)): 0.1 to 100 nM

SMILES: CC(F)C(C)(C)C(=O)N1CCOc2c(C#N)cncc2C1 (single isomer, unassigned) [Example 273, 4-(3-Fluoro-2,2-dimethyl-butanoyl)-3,5-dihydro-2H-pyrido[3,4-f][1,4]oxazepine-9-carbonitrile]
- IC50 (GST-hRIPK1 (8-327)): 100 to 1000 nM

SMILES: CC(C)(C(=O)N1CCOc2c(C#N)cncc2C1)C1CCN(c2ncc(F)cn2)C1 (single isomer, unassigned) [Example 280, 4-[2-(-1-(5-Fluoropyrimidin-2-yl)pyrrolidin-3-yl)-2-methyl-propanoyl]-3,5-dihydro-2H-pyrido[3,4-f][1,4]oxazepine-9-carbonitrile]
- IC50 (GST-hRIPK1 (8-327)): > 1000 nM

SMILES: CC(C)(C(=O)N1CCOc2c(C#N)cncc2C1)C1CCN(c2ncc(F)cn2)C1 (single isomer, unassigned) [Example 281, 4-[2-(-1-(5-Fluoropyrimidin-2-yl)pyrrolidin-3-yl)-2-methyl-propanoyl]-3,5-dihydro-2H-pyrido[3,4-f][1,4]oxazepine-9-carbonitrile]
- IC50 (GST-hRIPK1 (8-327)): 0.1 to 100 nM

SMILES: CCC(C)(OC)C(=O)N1CCOc2c(C#N)cncc2C1 (single isomer, unassigned) [Example 282, 4-(2-Methoxy-2-methyl-butanoyl)-3,5-dihydro-2H-pyrido[3,4-f][1,4]oxazepine-9-carbonitrile]
- IC50 (GST-hRIPK1 (8-327)): 100 to 1000 nM

SMILES: CCC(C)(OC)C(=O)N1CCOc2c(C#N)cncc2C1 (single isomer, unassigned) [Example 283, 4-(-2-Methoxy-2-methyl-butanoyl)-3,5-dihydro-2H-pyrido[3,4-f][1,4]oxazepine-9-carbonitrile]
- IC50 (GST-hRIPK1 (8-327)): 100 to 1000 nM

SMILES: CC1(C(=O)N2CCOc3c(C#N)cncc3C2)CCN(c2ncc(F)cn2)CC1(F)F (single isomer, unassigned) [Example 284, 4-[3,3-Difluoro-1-(5-fluoropyrimidin-2-yl)-4-methyl-piperidine-4-carbonyl]-3,5-dihydro-2H-pyrido[3,4-f][1,4]oxazepine-9-carbonitrile]
- IC50 (GST-hRIPK1 (8-327)): 0.1 to 100 nM

SMILES: CC1(C(=O)N2CCOc3c(C#N)cncc3C2)CCN(c2ncc(F)cn2)CC1(F)F (single isomer, unassigned) [Example 285, 4-[-3,3-Difluoro-1-(5-fluoropyrimidin-2-yl)-4-methyl-piperidine-4-carbonyl]-3,5-dihydro-2H-pyrido[3,4-f][1,4]oxazepine-9-carbonitrile]
- IC50 (GST-hRIPK1 (8-327)): 100 to 1000 nM

SMILES: N#Cc1cncc2c1OCCN(C(=O)C1(F)CCN(c3ncc(F)cn3)CC1(F)F)C2 (single isomer, unassigned) [Example 295, 4-[3,3,4-Trifluoro-1-(5-fluoropyrimidin-2-yl)piperidine-4-carbonyl]-3,5-dihydro-2H-pyrido[3,4-f][1,4]oxazepine-9-carbonitrile]
- IC50 (GST-hRIPK1 (8-327)): 100 to 1000 nM

SMILES: N#Cc1cncc2c1OCCN(C(=O)C1(F)CCN(c3ncc(F)cn3)CC1(F)F)C2 (single isomer, unassigned) [Example 296, 4-[3,3,4-Trifluoro-1-(5-fluoropyrimidin-2-yl)piperidine-4-carbonyl]-3,5-dihydro-2H-pyrido[3,4-f][1,4]oxazepine-9-carbonitrile]
- IC50 (GST-hRIPK1 (8-327)): 0.1 to 100 nM

- IC50 (GST-hRIPK1 (8-327)): 0.1 to 100 nM
SMILES: CC1(C(=O)N2CCOc3c(C#N)cncc3C2)CCN(c2ncccn2)CC1(F)F (single isomer, unassigned) [Example 297, 4-[3,3-Difluoro-4-methyl-1-pyrimidin-2-yl-piperidine-4-carbonyl]-3,5-dihydro-2H-pyrido[3,4-f][1,4]oxazepine-9-carbonitrile]

- IC50 (GST-hRIPK1 (8-327)): > 1000 nM
SMILES: CC1(C(=O)N2CCOc3c(C#N)cncc3C2)CCN(c2ncccn2)CC1(F)F (single isomer, unassigned) [Example 298, 4-[3,3-Difluoro-4-methyl-1-pyrimidin-2-yl-piperidine-4-carbonyl]-3,5-dihydro-2H-pyrido[3,4-f][1,4]oxazepine-9-carbonitrile]

SMILES: CC1(C(=O)N2CCOc3c(C#N)cncc3C2)CCN(c2ncc(F)cn2)CC1F (single isomer, unassigned) [Example 299, 4-[3-Fluoro-1-(5-fluoropyrimidin-2-yl)-4-methyl-piperidine-4-carbonyl]-3,5-dihydro-2H-pyrido[3,4-f][1,4]oxazepine-9-carbonitrile]
- IC50 (GST-hRIPK1 (8-327)): 0.1 to 100 nM

SMILES: CC1(C(=O)N2CCOc3c(C#N)cncc3C2)CCN(c2ncc(F)cn2)CC1F (single isomer, unassigned) [Example 300, 4-[3-Fluoro-1-(5-fluoropyrimidin-2-yl)-4-methyl-piperidine-4-carbonyl]-3,5-dihydro-2H-pyrido[3,4-f][1,4]oxazepine-9-carbonitrile]
- IC50 (GST-hRIPK1 (8-327)): 0.1 to 100 nM

SMILES: N#Cc1cncc2c1OCCN(C(=O)C1CCN(c3nccn4ncnc34)CC1F)C2 (single isomer, unassigned) [Example 301, 4-[3-Fluoro-1-([1,2,4]triazolo[1,5-a]pyrazin-8-yl)piperidine-4-carbonyl]-3,5-dihydro-2H-pyrido[3,4-f][1,4]oxazepine-9-carbonitrile]
- IC50 (GST-hRIPK1 (8-327)): 100 to 1000 nM

SMILES: N#Cc1cncc2c1OCCN(C(=O)C1CCN(c3nccn4ncnc34)CC1F)C2 (single isomer, unassigned) [Example 302, 4-[3-Fluoro-1-([1,2,4]triazolo[1,5-a]pyrazin-8-yl)piperidine-4-carbonyl]-3,5-dihydro-2H-pyrido[3,4-f][1,4]oxazepine-9-carbonitrile]
- IC50 (GST-hRIPK1 (8-327)): 0.1 to 100 nM

SMILES: N#Cc1cncc2c1OCCN(C(=O)C1CCN(c3ccnc4c(F)cnn34)CC1F)C2 (single isomer, unassigned) [Example 303, 4-[3-Fluoro-1-(3-fluoropyrazolo[1,5-a]pyrimidin-7-yl)piperidine-4-carbonyl]-3,5-dihydro-2H-pyrido[3,4-f][1,4]oxazepine-9-carbonitrile]
- IC50 (GST-hRIPK1 (8-327)): 100 to 1000 nM

SMILES: N#Cc1cncc2c1OCCN(C(=O)C1CCN(c3ccnc4c(F)cnn34)CC1F)C2 (single isomer, unassigned) [Example 304, 4-[3-Fluoro-1-(3-fluoropyrazolo[1,5-a]pyrimidin-7-yl)piperidine-4-carbonyl]-3,5-dihydro-2H-pyrido[3,4-f][1,4]oxazepine-9-carbonitrile]
- IC50 (GST-hRIPK1 (8-327)): 0.1 to 100 nM
